From patent US20050014137A1, “Lentivirus assay system including Vif protein activity” (priority 2003, published 2005)
Where two headings read alike, the source gives them in different places.

Columns and labels:
HIV-1 NL4.3 [1] = test: MT-2 cell-based HIV co-culture assay (HeLa CD4 LTR/lacZ indicator cells, β-Gal reporter); details: for EC50: read-out: MT-2 Co-Culture Assay EC50; for EC90: read-out: MT-2 Co-Culture Assay EC90
Protocol: HeLa CD4 LTR/lacZ indicator cells were added to 96-well microtiter plates at cell densities of 1×10^4 cells/well in DMEM or RPMI medium (Life Technologies) containing 10% FBS (HyClone). MT-2 cells were infected with HIV-1 NL4.3 using 656, 1312, 2624, or 5248 TCID50s per 1.6×10^4 cells. Two hours after infection, infected MT-2 cells were washed with RPMI medium (Life Technologies) and added to the 96-well microtiter plates containing the HeLa CD4 LTR/lacZ indicator cells. The final MT2-cell densities in the indicator wells were 1.6×10^4 cells/well.
Virus replication was measured 4 days after infection by quantifying HIV-1 Tat induced beta-galactosidase (β-Gal) activity in the HeLa CD4 LTR/lacZ indicator cells using the Dual-Light™ System according to the manufacturer's protocol (Applied Biosystems). Experiments were performed in replicates of 3 or more.
Half-log dilutions of test compounds were added to HeLa CD4 LTR/lacZ indicator cells seeded in 96-well plates at a cell density of 1×10^4 cells per well in DMEM or RPMI (Life Technologies) containing 10% FBS (HyClone). MT-2 cells were infected with HIV-1 NL4.3 virus at an MOI of 0.08. Two hours after infection, infected cells were washed with RPMI, resuspended in RPMI medium, and added to the 96-well plates containing compound-treated or compound free HeLa CD4 LTR/lacZ indicator cells. Virus replication was measured 3 or 4 days after infection by quantifying HIV-1 Tat induced β-Gal activity in the HeLa CD4 LTR/lacZ indicator cells using the Dual-Light™ System according to the manufacturer's protocol (Applied Biosystems).
Data was expressed as the percent of reporter gene activity in infected compound-treated cells relative to that of infected, compound-free cells.

HIV-1 NL4.3 [2] = test: PM1 cell-based HIV co-culture assay (HeLa CD4 LTR/lacZ indicator cells, β-Gal reporter); details: for EC50: read-out: PM-1 Co-Culture Assay EC50; for EC90: read-out: PM-1 Co-Culture Assay EC90
Source text: (§1) The modifications were as follows: PM1 cells were used in place of the MT-2 cells.
as §1

HIV-1 = details: range of EC50 values reported in the literature, NIH anti-HIV therapeutics database, cited from earlier work
HIV-1 NL4.3 [3] = test: Direct infection of HeLa CD4 LTR/lacZ indicator cells (known reporter cell assay); type: cell-based
Source text: This Example compared the present HIV co-culture assay with a known reporter cell-based assay method. This known method involved direct infection of HeLa CD4 LTR/lacZ indicator cells with HIV-1 (Kimpton and Emerman, J. Virol., 66(4):2232-2239 (1992)).
HeLa CD4 LTR/lacZ indicator cells were directly infected with TCID50s identical to those used in the co-culture experiments described in Examples 1 and 2. HeLa CD4 LTR/lacZ indicator cells were infected directly with HIV-1 NL4.3 using 656, 1312, 2624, or 5248 TCID50s per 1×10^4 cells.

[4] = Human immunodeficiency virus 1, MT2, 96 h
[5] = Human immunodeficiency virus 1, PM1, 96 h
[6] = read-out: Literature EC50 (Table 1)
[7] = read-out: Literature EC50 (Table 2)
[8] = Human immunodeficiency virus 1, PM1, 96 h, induced β-Gal activity 4 days after HIV-1 NL4.3 infection, PM-1 cells
[9] = Human immunodeficiency virus 1, MT2, 96 h, induced β-Gal activity 4 days after HIV-1 NL4.3 infection, MT-2 cells, MOI 0.08
[10] = induced β-Gal activity 4 days after HIV-1 NL4.3 infection, PM-1 cells
[11] = induced β-Gal activity 4 days after HIV-1 NL4.3 infection, MT-2 cells, MOI 0.08
[12] = Human immunodeficiency virus 1, 96 h, read-out: inhibition of the reporter signal

Structure (SMILES)	EC50 (HIV-1 NL4.3 [1]; [4]) [nM]	EC90 (HIV-1 NL4.3 [1]; [4]) [nM]	EC50 (HIV-1 NL4.3 [2]; [5]) [nM]	EC90 (HIV-1 NL4.3 [2]; [5]) [nM]	EC50 (HIV-1; [6]) [nM]	EC50 (HIV-1; [7]) [nM]	also measured
CC(C)c1nc(COC(N)=O)n(Cc2ccncc2)c1Sc1cc(Cl)cc(Cl)c1 [CPV, Capravirine]	2.4	12	–	–	–	–	–
CC(C)(C)NC(=O)[C@@H]1C[C@@H]2CCCC[C@@H]2CN1C[C@@H](O)[C@H](Cc1ccccc1)NC(=O)[C@H](CC(N)=O)NC(=O)c1ccc2ccccc2n1 [SQV, saquinavir]	12	26	5.3	34	0.2 to 57	0.2 to 57	–
CC(C)(C)C(=O)OCOP(=O)(COCCn1cnc2c(N)ncnc21)OCOC(=O)C(C)(C)C [ADV, adefovir dipivoxil]	–	–	–	–	40 to 500	40 to 500	EC50 (HIV-1 NL4.3 [2]; [8]): 25 nM; EC90 (HIV-1 NL4.3 [2]; [8]): 150 nM; EC50 (HIV-1 NL4.3 [1]; [9]): 39 nM; EC90 (HIV-1 NL4.3 [1]; [9]): 220 nM
Cc1cn([C@H]2C[C@H](N=[N+]=[N-])[C@@H](CO)O2)c(=O)[nH]c1=O [AZT, 3′-Azido-3′-deoxythymidine]	31	280	30	180	6 to 90	6 to 90	–
O=c1[nH]cnc2c1ncn2[C@H]1CC[C@@H](CO)O1 [ddl, didanosine]	1700	14000	–	–	460 to 10000	–	–
O=C(NCc1ccc(F)cc1)c1nc(N2CCCCS2(=O)=O)c2cccnc2c1O [L-870810]	–	–	–	–	4 to 8	4 to 8	EC50 (HIV-1 NL4.3 [2]; [10]): 0.61 nM; EC90 (HIV-1 NL4.3 [2]; [10]): 2.4 nM; EC50 (HIV-1 NL4.3 [1]; [11]): 1.4 nM; EC90 (HIV-1 NL4.3 [1]; [11]): 5.9 nM
Cc1ccnc2c1NC(=O)c1cccnc1N2C1CC1 [NVP, Nevirapine]	–	–	–	260	24 to 48	24 to 48	EC50 (HIV-1 NL4.3 [2]; [8]): 12 nM; EC50 (HIV-1 NL4.3 [1]; [9]): 46 nM; EC90 (HIV-1 NL4.3 [1]; [9]): 380 nM
O=C(O)C1=CC(=C(c2ccc(O)c(C(=O)O)c2)c2ccc(O)c(C(=O)O)c2)C=CC1=O [ATA, aurintricarboxylic acid]	3300	9900	–	–	–	–	–
Nc1ccn([C@@H]2CS[C@H](CO)O2)c(=O)n1 [3TC, lamivudine]	420	5500	180	1700	–	–	–
O=C1Nc2ccc(Cl)cc2[C@@](C#CC2CC2)(C(F)(F)F)O1 [EFV, efavirenz]	1.4	4.3	0.19	6.2	–	–	inhibition of the reporter signal (HIV-1 NL4.3 [3]; inhibitor at >10×EC90): > 99%; inhibition at 0.1 µM (HIV-1 NL4.3 [1]; [12]): > 99%
CC(C)Nc1cccnc1N1CCN(C(=O)c2cc3cc(NS(C)(=O)=O)ccc3[nH]2)CC1 [DLV, delavirdine]	34	110	5.9	100	0.1 to 10	0.1 to 10	–
Cc1cn([C@H]2C=C[C@@H](CO)O2)c(=O)[nH]c1=O [d4T, stavudine]	210	3600	–	–	10 to 8000	–	–
CC(C)(C)NC(=O)[C@@H]1CN(Cc2cccnc2)CCN1C[C@@H](O)C[C@@H](Cc1ccccc1)C(=O)N[C@H]1c2ccccc2C[C@H]1O [IDV, indinavir]	26	55	12	47	1.1 to 60	1.1 to 60	–
O=C(/C=C(\O)c1nc[nH]n1)c1ccc(Cc2ccc(F)cc2)o1 [S-1360]	–	–	–	–	–	–	EC50 (HIV-1 NL4.3 [2]; [8]): 91 nM; EC90 (HIV-1 NL4.3 [2]; [8]): 280 nM; EC50 (HIV-1 NL4.3 [1]; [9]): 88 nM; EC90 (HIV-1 NL4.3 [1]; [9]): 1090 nM
Cc1c(O)cccc1C(=O)N[C@@H](CSc1ccccc1)[C@H](O)CN1C[C@H]2CCCC[C@H]2C[C@H]1C(=O)NC(C)(C)C [NFV, nelfinavir]	18	100	10	58	10 to 43	10 to 43	inhibition of the reporter signal (HIV-1 NL4.3 [2]; PM1 co-culture, inhibitor at ≧10×EC90): 99%; inhibition of the reporter signal (HIV-1 NL4.3 [3]; inhibitor at 10×EC90): 42%; inhibition at 1 µM (HIV-1 NL4.3 [1]; [12]): ~98%
